In ChEMBL document CHEMBL4665641, “Lead optimization and efficacy evaluation of quinazoline-based BET family inhibitors for potential treatment of cancer and inflammatory diseases” (Bioorg Med Chem Lett, 2019):

tested on: not listed separately; assay: Volume of distribution at steady state in CD-1 mouse at 2 mg/kg, iv; format: ADME, organism-based; details: in vivo, read-out: Vdss

Question: With `Cc1noc(C)c1-c1ccc2nc(-c3cnn(CC(C)(C)O)c3)nc(N3CCOC[C@@H]3c3ccc(Cl)cc3)c2c1` as the molecule, how does the Vd read?
Answer: 1.58 L/kg

Question: For `Cn1cc(-c2ccc3nc(-c4cnn(CC(C)(C)O)c4)nc(N4CCOC[C@@H]4c4ccccc4)c3c2)ccc1=O`, which Vd is on record?
Answer: 1.89 L/kg

Question: For `Cn1cc(-c2ccc3nc(-c4cnn(CC(C)(C)O)c4)nc(N4CCOC[C@@H]4c4cccs4)c3c2)ccc1=O`, which Vd is on record?
Answer: 1.08 L/kg

Question: Which Vd does the source give for `CC(=O)N1CCN(c2nc(-c3cnn(CC(C)(C)O)c3)nc3ccc(-c4c(C)noc4C)cc23)[C@@H](c2ccccc2)C1` here?
Answer: 0.72 L/kg

tested on: not listed separately; assay: AUC(0 to infinity) in CD-1 mouse at 2 mg/kg, iv; format: ADME, organism-based; parameters: time infinity, route intravenous, dose 2 mg/kg; details: CD-1, mouse, in vivo

Question: Which AUC(0-inf) does the source give for `Cc1noc(C)c1-c1ccc2nc(-c3cnn(CC(C)(C)O)c3)nc(N3CCOC[C@@H]3c3ccc(Cl)cc3)c2c1` here?
Answer: 5720 ng·h/mL

Question: Which AUC(0-inf) does the source give for `Cn1cc(-c2ccc3nc(-c4cnn(CC(C)(C)O)c4)nc(N4CCOC[C@@H]4c4ccccc4)c3c2)ccc1=O` here?
Answer: 2730 ng·h/mL

Question: Which AUC(0-inf) does the source give for `Cn1cc(-c2ccc3nc(-c4cnn(CC(C)(C)O)c4)nc(N4CCOC[C@@H]4c4cccs4)c3c2)ccc1=O` here?
Answer: 5550 ng·h/mL

Question: Which AUC(0-inf) does the source give for `CC(=O)N1CCN(c2nc(-c3cnn(CC(C)(C)O)c3)nc3ccc(-c4c(C)noc4C)cc23)[C@@H](c2ccccc2)C1` here?
Answer: 4640 ng·h/mL

tested on: MV4-11; assay: Cytotoxicity against human MV4-11 cells assessed as inhibition of cell viability; format: functional, cell-based; details: not given

Question: Which IC50 does the source give for `Cc1noc(C)c1-c1ccc2nc(-c3cnn(CC(C)(C)O)c3)nc(N3CCOC[C@@H]3c3ccc(Cl)cc3)c2c1` here?
Answer: 1600 nM

Question: With `Cn1cc(-c2ccc3nc(-c4cnn(CC(C)(C)O)c4)nc(N4CCOC[C@@H]4c4ccccc4)c3c2)ccc1=O` as the molecule, how does the IC50 read?
Answer: 740 nM

Question: With `Cn1cc(-c2ccc3nc(-c4cnn(CC(C)(C)O)c4)nc(N4CCOC[C@@H]4c4cccs4)c3c2)ccc1=O` as the molecule, how does the IC50 read?
Answer: 980 nM

Question: With `CC(=O)N1CCN(c2nc(-c3cnn(CC(C)(C)O)c3)nc3ccc(-c4c(C)noc4C)cc23)[C@@H](c2ccccc2)C1` as the molecule, how does the IC50 read?
Answer: 850 nM

biological target: T1, Bromodomain-containing protein 4 (Homo sapiens, UniProt O60885); assay: Inhibition of human full-length recombinant N-terminal His-tagged BRD4 (2 to 1362 residues) expressed in Sf9 cells using histone H4 peptide containing acetylated lysine residues as substrate preincubated with enzyme for 30 mins followed by incubation with substrate for 30 mins by Alphascreen assay […]; details: not given

Question: With `Cc1noc(C)c1-c1ccc2nc(-c3cnn(CC(C)(C)O)c3)nc(N3CCOC[C@@H]3c3ccc(Cl)cc3)c2c1` as the molecule, how does the IC50 read?
Answer: 155 nM

Question: For `Cn1cc(-c2ccc3nc(-c4cnn(CC(C)(C)O)c4)nc(N4CCOC[C@@H]4c4ccccc4)c3c2)ccc1=O`, which IC50 is on record?
Answer: 57 nM

Question: For `Cn1cc(-c2ccc3nc(-c4cnn(CC(C)(C)O)c4)nc(N4CCOC[C@@H]4c4cccs4)c3c2)ccc1=O`, which IC50 is on record?
Answer: 165 nM

Question: Which IC50 does the source give for `CC(=O)N1CCN(c2nc(-c3cnn(CC(C)(C)O)c3)nc3ccc(-c4c(C)noc4C)cc23)[C@@H](c2ccccc2)C1` here?
Answer: 140 nM

tested on: not listed separately; assay: Oral bioavailability in CD-1 mouse at 10 mg/kg; format: ADME, organism-based; details: CD-1, mouse, in vivo

Question: Which bioavailability does the source give for `Cc1noc(C)c1-c1ccc2nc(-c3cnn(CC(C)(C)O)c3)nc(N3CCOC[C@@H]3c3ccc(Cl)cc3)c2c1` here?
Answer: 44%

Question: With `Cn1cc(-c2ccc3nc(-c4cnn(CC(C)(C)O)c4)nc(N4CCOC[C@@H]4c4ccccc4)c3c2)ccc1=O` as the molecule, how does the bioavailability read?
Answer: 118%

Question: With `Cn1cc(-c2ccc3nc(-c4cnn(CC(C)(C)O)c4)nc(N4CCOC[C@@H]4c4cccs4)c3c2)ccc1=O` as the molecule, how does the bioavailability read?
Answer: 83%

Question: For `CC(=O)N1CCN(c2nc(-c3cnn(CC(C)(C)O)c3)nc3ccc(-c4c(C)noc4C)cc23)[C@@H](c2ccccc2)C1`, which bioavailability is on record?
Answer: 95%

tested on: not listed separately; assay: Cmax in CD-1 mouse at 2 mg/kg, iv measured after 5 mins; format: ADME, organism-based; parameters: route intravenous, dose 2 mg/kg; details: CD-1, mouse, in vivo, read-out: Cmax

Question: With `Cc1noc(C)c1-c1ccc2nc(-c3cnn(CC(C)(C)O)c3)nc(N3CCOC[C@@H]3c3ccc(Cl)cc3)c2c1` as the molecule, how does the Cmax read?
Answer: 1800 ng/mL

Question: For `Cn1cc(-c2ccc3nc(-c4cnn(CC(C)(C)O)c4)nc(N4CCOC[C@@H]4c4ccccc4)c3c2)ccc1=O`, which Cmax is on record?
Answer: 1860 ng/mL

Question: With `Cn1cc(-c2ccc3nc(-c4cnn(CC(C)(C)O)c4)nc(N4CCOC[C@@H]4c4cccs4)c3c2)ccc1=O` as the molecule, how does the Cmax read?
Answer: 2040 ng/mL

Question: With `CC(=O)N1CCN(c2nc(-c3cnn(CC(C)(C)O)c3)nc3ccc(-c4c(C)noc4C)cc23)[C@@H](c2ccccc2)C1` as the molecule, how does the Cmax read?
Answer: 2450 ng/mL

tested on: not listed separately; assay: Plasma clearance in CD-1 mouse at 2 mg/kg, iv; format: ADME, organism-based; details: not given

Question: Which clearance does the source give for `Cc1noc(C)c1-c1ccc2nc(-c3cnn(CC(C)(C)O)c3)nc(N3CCOC[C@@H]3c3ccc(Cl)cc3)c2c1` here?
Answer: 5.9 mL/min/kg

Question: For `Cn1cc(-c2ccc3nc(-c4cnn(CC(C)(C)O)c4)nc(N4CCOC[C@@H]4c4ccccc4)c3c2)ccc1=O`, which clearance is on record?
Answer: 12.3 mL/min/kg

Question: Which clearance does the source give for `Cn1cc(-c2ccc3nc(-c4cnn(CC(C)(C)O)c4)nc(N4CCOC[C@@H]4c4cccs4)c3c2)ccc1=O` here?
Answer: 6.4 mL/min/kg

Question: With `CC(=O)N1CCN(c2nc(-c3cnn(CC(C)(C)O)c3)nc3ccc(-c4c(C)noc4C)cc23)[C@@H](c2ccccc2)C1` as the molecule, how does the clearance read?
Answer: 7.3 mL/min/kg

tested on: not listed separately; assay: Half life in CD-1 mouse at 10 mg/kg, po; format: ADME, organism-based; details: in vivo

Question: For `Cc1noc(C)c1-c1ccc2nc(-c3cnn(CC(C)(C)O)c3)nc(N3CCOC[C@@H]3c3ccc(Cl)cc3)c2c1`, which half-life is on record?
Answer: 2.8 h

Question: For `Cn1cc(-c2ccc3nc(-c4cnn(CC(C)(C)O)c4)nc(N4CCOC[C@@H]4c4ccccc4)c3c2)ccc1=O`, which half-life is on record?
Answer: 1.5 h

Question: Which half-life does the source give for `Cn1cc(-c2ccc3nc(-c4cnn(CC(C)(C)O)c4)nc(N4CCOC[C@@H]4c4cccs4)c3c2)ccc1=O` here?
Answer: 1.6 h

Question: Which half-life does the source give for `CC(=O)N1CCN(c2nc(-c3cnn(CC(C)(C)O)c3)nc3ccc(-c4c(C)noc4C)cc23)[C@@H](c2ccccc2)C1` here?
Answer: 1.7 h

tested on: not listed separately; assay: AUC(0 to infinity) in CD-1 mouse at 10 mg/kg, po; format: ADME, organism-based; parameters: route oral, time infinity, dose 10 mg/kg; details: CD-1, mouse, in vivo

Question: With `Cc1noc(C)c1-c1ccc2nc(-c3cnn(CC(C)(C)O)c3)nc(N3CCOC[C@@H]3c3ccc(Cl)cc3)c2c1` as the molecule, how does the AUC(0-inf) read?
Answer: 12600 ng·h/mL

Question: With `Cn1cc(-c2ccc3nc(-c4cnn(CC(C)(C)O)c4)nc(N4CCOC[C@@H]4c4ccccc4)c3c2)ccc1=O` as the molecule, how does the AUC(0-inf) read?
Answer: 16100 ng·h/mL

Question: Which AUC(0-inf) does the source give for `Cn1cc(-c2ccc3nc(-c4cnn(CC(C)(C)O)c4)nc(N4CCOC[C@@H]4c4cccs4)c3c2)ccc1=O` here?
Answer: 22900 ng·h/mL

Question: For `CC(=O)N1CCN(c2nc(-c3cnn(CC(C)(C)O)c3)nc3ccc(-c4c(C)noc4C)cc23)[C@@H](c2ccccc2)C1`, which AUC(0-inf) is on record?
Answer: 21900 ng·h/mL

tested on: not listed separately; assay: Half life in CD-1 mouse at 2 mg/kg, iv; format: ADME, organism-based; details: in vivo

Question: Which half-life does the source give for `Cc1noc(C)c1-c1ccc2nc(-c3cnn(CC(C)(C)O)c3)nc(N3CCOC[C@@H]3c3ccc(Cl)cc3)c2c1` here?
Answer: 2.4 h

Question: Which half-life does the source give for `Cn1cc(-c2ccc3nc(-c4cnn(CC(C)(C)O)c4)nc(N4CCOC[C@@H]4c4ccccc4)c3c2)ccc1=O` here?
Answer: 2.2 h

Question: For `Cn1cc(-c2ccc3nc(-c4cnn(CC(C)(C)O)c4)nc(N4CCOC[C@@H]4c4cccs4)c3c2)ccc1=O`, which half-life is on record?
Answer: 2.3 h

Question: With `CC(=O)N1CCN(c2nc(-c3cnn(CC(C)(C)O)c3)nc3ccc(-c4c(C)noc4C)cc23)[C@@H](c2ccccc2)C1` as the molecule, how does the half-life read?
Answer: 1.5 h

biological target: T1, Bromodomain-containing protein 4; assay: Competitive binding affinity to human partial length BRD4 (BD1,2) (N44 to E460 residues) expressed in bacterial expression system by BROMOscan assay; details: not given

Question: With `Cc1noc(C)c1-c1ccc2nc(-c3cnn(CC(C)(C)O)c3)nc(N3CCOC[C@@H]3c3ccc(Cl)cc3)c2c1` as the molecule, how does the Kd read?
Answer: 305 nM

Question: Which Kd does the source give for `Cn1cc(-c2ccc3nc(-c4cnn(CC(C)(C)O)c4)nc(N4CCOC[C@@H]4c4ccccc4)c3c2)ccc1=O` here?
Answer: 69 nM

Question: With `Cn1cc(-c2ccc3nc(-c4cnn(CC(C)(C)O)c4)nc(N4CCOC[C@@H]4c4cccs4)c3c2)ccc1=O` as the molecule, how does the Kd read?
Answer: 300 nM

Question: For `CC(=O)N1CCN(c2nc(-c3cnn(CC(C)(C)O)c3)nc3ccc(-c4c(C)noc4C)cc23)[C@@H](c2ccccc2)C1`, which Kd is on record?
Answer: 81 nM

tested on: not listed separately; assay: Cmax in CD-1 mouse at 10 mg/kg, po; format: ADME, organism-based; parameters: route oral, dose 10 mg/kg; details: CD-1, mouse, in vivo, read-out: Cmax

Question: Which Cmax does the source give for `Cc1noc(C)c1-c1ccc2nc(-c3cnn(CC(C)(C)O)c3)nc(N3CCOC[C@@H]3c3ccc(Cl)cc3)c2c1` here?
Answer: 1120 ng/mL

Question: For `Cn1cc(-c2ccc3nc(-c4cnn(CC(C)(C)O)c4)nc(N4CCOC[C@@H]4c4ccccc4)c3c2)ccc1=O`, which Cmax is on record?
Answer: 1980 ng/mL

Question: With `Cn1cc(-c2ccc3nc(-c4cnn(CC(C)(C)O)c4)nc(N4CCOC[C@@H]4c4cccs4)c3c2)ccc1=O` as the molecule, how does the Cmax read?
Answer: 2090 ng/mL

Question: With `CC(=O)N1CCN(c2nc(-c3cnn(CC(C)(C)O)c3)nc3ccc(-c4c(C)noc4C)cc23)[C@@H](c2ccccc2)C1` as the molecule, how does the Cmax read?
Answer: 3450 ng/mL
